Literature values in patent US20150216850A1 (priority 2012, published 2015).

Columns and labels:
[1] = tested on: Huntington's disease patients
[2] = tested on: patients with HD
[3] = tested on: Huntington's disease patients; details: twice-daily doses of 45 mg over 12 weeks

Structure (SMILES): CCCN1CCC(c2cccc(S(C)(=O)=O)c2)CC1 [pridopidine]
- tertiary endpoint UHDRS-TMS and individual items within the mMS (gait, dysarthria) ([1]; 45 mg daily or 90 mg daily for 6 months): statistically significant effect
- primary endpoint: effect on subset of motor symptoms defined in the mMS ([1]; 45 mg daily or 90 mg daily, at 26 weeks): not met
- symptomatic relief (hand movements, gait and balance) [2]: significant symptomatic relief
- effect on total motor function [3]: significant effect
